Data from patent US20250000874A1, “BACTERIAL METABOLITES AND THEIR USE IN REDUCING INFLAMMATION” (LOYOLA UNIVERSITY OF CHICAGO, priority 2023, published 2025).

How the values were obtained:
[1] = tested on: phosphorylated NFκB (ser536); assay: NC on phospho-NFκB (ser536) levels in stimulated Raw 264.7 macrophages; format: cell-based, mouse
Experimental: FIG. 31. Compound NC on phospho-NFκB (ser536) levels in stimulated macrophages. Raw 264.7 macrophages were incubated with 50 μM of NC for 18 hours prior to stimulation with LPS or Poly I:C. Whole cell lysates were collected after 2 hours and the level of phosphorylated NFκB (Phosphoserine 536) was quantified for endpoint absorbance at […] and normalized to absorbance of untreated, unstimulated cells. Mean and p values were computed using R base and dplyr packages using normalized values.
TRIF can participate in TNFα signaling through two distinct mechanisms. Firstly, TRIF can signal NFκB through TRAF6 to increase TNFα transcription. Secondly, TRIF activation can enhance the translation of TNFα mRNA through prolonged MK-2 activation. To determine whether NC reduces TNFα release by blocking TNFα transcription or translation, we collected cell lysates and quantified the levels of phosphorylated NFκB (ser536). Lysates of Raw 264.7 cells treated with NC prior to stimulation with LPS or Poly I:C contained more phosphorylated NFκB (ser536) than untreated cells (FIG. 31). There was no difference in phosphorylated NFκB (ser536) in unstimulated cells treated with NC.

[2] = tested on: human corneal epithelial cells (HCECs); assay: MQ on IL-6 production in HCECs in response to TLR agonists; format: cell-based; conditions: for production and secretion of IL6: MQ 50 μM overnight
Experimental: FIG. 26. MQ Reduces IL-6 Response to Toll 3 and Toll 5 Agonist. HCECs were cultured at a uniform density and allowed to adhere. Cells were then incubated overnight in MQ at a concentration of […] at 37° C. The following day, the HCECs were stimulated with FLA at a concentration of 100 ng/ml or P (I:C) at 500 μg/mL for four hours. Supernatants were collected and IL-6 concentrations were determined via ELISA.
To investigate the effects of MQ on cytokine activity, human corneal epithelial cells (HCECs) were stimulated with various TLR agonists and the production of cytokines was measured via ELISA. HCECs were seeded at a density of 2×10^5 cells/well and were treated overnight with MQ at a concentration of 50 μM and the following day they were stimulated with Flagellin (FLA) at 100 ng/ml or Poly (I:C) at a concentration of 500 μg/ml. After 4 hours, supernatant was collected and the concentration of IL-6 was determined via ELISA.
The effects of MQ on various other TLR pathways including: TLR 1/2 (PAM3CSK4), TLR 2/6 (FSL) TLR 4 (Lipopolysaccharide), TLR 7 (Imiquimod), and TLR 9 (ODN2006) was also investigated.

Raw 264.7 Cells = assay: JE on TNF-α and IL-6 production by Raw 264.7 cells upon TLR agonists; format: cell-based, mouse; conditions: for decrease in TNF-α production: vs untreated macrophages
Experimental: (§1) FIG. 13. The Effect of JE on TNF-α Production by Raw 264.7 Cells Upon Stimulation with TLR Agonists. Macrophages were incubated overnight with JE at a concentration of 50 μM at t 37° C., 5% CO2. The following day, the macrophages were stimulated with 10 ng/ml of LPS, 1 μg/ml of FLG-St, 3 μg/ml of PAM-3csk, 1 μM of ODN and 20 μg/ml of Poly: IC for 3 hours. Supernatants were collected, and TNF-α was measured by ELISA. The data are presented as mean±SEM (n=6). *p<0.05; **p<0.01; ***p<0.001. One of three experiments is shown.
FIG. 14. The Effect of JE on TNF-α Production by Raw 264.7 Cells Upon Stimulation with TLR Agonists. Macrophages were incubated overnight with JE at a concentration of 50 μM at 37° C., 5% CO2. The following day, the macrophages were stimulated with 1 μg/ml of FSL-1 2 μg/ml of Imiquimod for 3 hours. Supernatants were collected and TNF-α was measured by ELISA. Data are presented as mean±SEM (n=6). *p<0.05; **p<0.01; ***p <0.001. One of three experiments is shown.
as §1, with “15.” for “13.”, “IL-6” for “TNF-α”, “TLR agonists at the same concentrations that I used” for “10 ng/ml of LPS, 1 μg/ml of FLG-St, 3 μg/ml of PAM-3csk, 1 μM of ODN and 20 μg/ml of Poly: IC”, “TNF-α induction.” for “3 hours.”
Murine macrophages, both RAW 264.7 macrophages and bone marrow-derived macrophages (BMDMs), were seeded and then pretreated overnight with the metabolite JE. The following day, the macrophages were stimulated with one of TLR agonists, including LPS, FLA-ST, ODN, Pam3SCK4, Poly: IC LMW, FSL, and Imiquimod for 3 hours, then the production of TNF-α, and IL-6 in the culture supernatants was measured by ELISA.

[3] = JE 50 μM overnight, TLR agonists 3 hours, vs media with TLR agonists

CCCCCCCCCCCCCCCC(=O)N[C@@H](C(=O)O)[C@H](C)O [NC, N-Palmitoyl-D-Threonine]
phosphorylated NFκB (ser536) level ([1]; 50 μM NC 18 hours, LPS, lysates after 2 hours): more and significantly decreases
phosphorylated NFκB (ser536) level ([1]; 50 μM NC 18 hours, Poly I:C, lysates after 2 hours): more and significantly decreases
phosphorylated NFκB (ser536) level ([1]; NC, unstimulated cells): no difference

Prednicarbate [MQ]
production and secretion of IL6 ([2]; Flagellin (FLA) 100 ng/ml 4 hours): reduced
production and secretion of IL6 ([2]; Poly (I:C) 500 μg/ml 4 hours): reduced
production of IL-6 ([2]; MQ alone, 50 μM overnight, no TLR agonist): not found to increase
cytokine production, other TLR pathways ([2]; PAM3CSK4, FSL, Lipopolysaccharide, Imiquimod, ODN2006, various concentrations): did not exhibit any significant inhibitory effects

CC(=O)O[C@@H]1CC[C@H]2[C@H]3CC[C@H]4CC(F)(F)CC[C@]4(C)[C@H]3CC[C@]12C [JE, 3,3-Difluoro-5-alpha-androstan-17-beta-yl acetate]
decrease in TNF-α production (Raw 264.7 Cells; JE 50 μM overnight, TLR 1/2 agonist PAM-3CSK): 4 fold
TNF-α secretion (Raw 264.7 Cells; JE 50 μM overnight, TLR2/6 agonist FSL-1): completely abolished
TNF-α production (Raw 264.7 Cells; JE 50 μM overnight, TLR4 agonist LPS): reduced
decrease in TNF-α production (Raw 264.7 Cells; JE 50 μM overnight, TLR 5 agonist FLG-ST): 4 fold
TNF-α production (Raw 264.7 Cells; JE 50 μM overnight, TLR7 agonist Imiquimod): reduced
production of IL-6 (Raw 264.7 Cells; [3]): significantly reduced
production of TNF-α (Raw 264.7 Cells; [3]): significantly reduced
TNF-α secretion (Raw 264.7 Cells; JE 50 μM overnight, TLR-3 agonist Poly: IC LMW): completely abolished
decrease in IL-6 secreted (Raw 264.7 Cells; JE pretreatment, LPS, relative to untreated macrophages): 4 fold
